Reference: PubChem BioAssay AID2060510 (Molecular Pharmacology Branch, DTP, NCI, 2025)

System: 439559-082-T-J2-PDC spheroids viability
Experiment: Anticancer human tumor 439559-082-T-J2-PDC patient-derived colon adenocarcinoma cell line growth inhibition [GQUAD]
Conditions: for IC50: curve of first compound; for viability, T/C: stronger effect = lower value; active means viability on the fitted dose curve at most 10% of control; inactive means the rest
Summary of the method: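 Tumor cells were grown as complex spheroids with HUVEC endothelial cells and mesenchymal stem cells as stroma. G-quadruplex stabilizers were combined with targeted agents over half-log dilutions from near the clinical Cmax, or from 10 microM.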

[1] = second compound 0.0316 µM, first compound 0.0316 µM
[2] = second compound 0.0316 µM, first compound 0.1 µM
[3] = second compound 0.0316 µM, first compound 0.316 µM
[4] = second compound 0.0316 µM, first compound 1 µM
[5] = second compound 0.0316 µM, first compound 3.16 µM
[6] = second compound 0.0316 µM, first compound 10 µM
[7] = second compound 0.1 µM, first compound 0.0316 µM
[8] = second compound 0.1 µM, first compound 0.1 µM
[9] = second compound 0.1 µM, first compound 0.316 µM
[10] = second compound 0.1 µM, first compound 1 µM
[11] = second compound 0.1 µM, first compound 3.16 µM
[12] = second compound 0.1 µM, first compound 10 µM
[13] = second compound 0.316 µM, first compound 0.0316 µM
[14] = second compound 0.316 µM, first compound 0.1 µM
[15] = second compound 0.316 µM, first compound 0.316 µM
[16] = second compound 0.316 µM, first compound 1 µM
[17] = second compound 0.316 µM, first compound 3.16 µM
[18] = second compound 0.316 µM, first compound 10 µM
[19] = second compound 1 µM, first compound 0.0316 µM
[20] = second compound 1 µM, first compound 0.1 µM
[21] = second compound 1 µM, first compound 0.316 µM
[22] = second compound 1 µM, first compound 1 µM
[23] = second compound 1 µM, first compound 3.16 µM
[24] = second compound 1 µM, first compound 10 µM
[25] = second compound 3.16 µM, first compound 0.0316 µM
[26] = second compound 3.16 µM, first compound 0.1 µM
[27] = second compound 3.16 µM, first compound 0.316 µM
[28] = second compound 3.16 µM, first compound 1 µM
[29] = second compound 3.16 µM, first compound 3.16 µM
[30] = second compound 3.16 µM, first compound 10 µM
[31] = second compound 10 µM, first compound 0.0316 µM
[32] = second compound 10 µM, first compound 0.1 µM
[33] = second compound 10 µM, first compound 0.316 µM
[34] = second compound 10 µM, first compound 1 µM
[35] = second compound 10 µM, first compound 3.16 µM
[36] = second compound 10 µM, first compound 10 µM
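Further: spheroids exposed to the agents for 7 days before readout.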
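Wherever viability, T/C is given: percent of luminescence signal in DMSO vehicle wells taken as 100% viability.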

COc1cccc2c1C(=O)c1c(O)c3c(c(O)c1C2=O)CC(O)(C(=O)CO)CC3OC1CC(N)C(O)C(C)O1 (stereo not drawn) + CN(C)c1ccc(Nc2c3ccc(NC(=O)CCN4CCCC4)cc3nc3cc(NC(=O)CCN4CCCC4)ccc23)cc1
6.45 µM: IC50 (second compound 0.316 µM)
5.07 µM: IC50 (second compound 3.16 µM)
5.76 µM: IC50 (second compound 0.0316 µM)
7.85 µM: IC50 (second compound 0.1 µM)
5.9 µM: IC50 (second compound 1 µM)
7.92 µM: IC50 (second compound 10 µM)
inactive: viability, T/C [1] 106% | viability, T/C [2] 86.7% | viability, T/C [3] 93.4% | viability, T/C [4] 77.5% | viability, T/C [5] 62.2% | viability, T/C [6] 38.8% | viability, T/C [7] 93.8% | viability, T/C [8] 95.5% | viability, T/C [9] 89.1% | viability, T/C [10] 73.2% | viability, T/C [11] 59.1% | viability, T/C [12] 47.4% | viability, T/C [13] 96.8% | viability, T/C [14] 101% | viability, T/C [15] 91.9% | viability, T/C [16] 83.5% | viability, T/C [17] 60.6% | viability, T/C [18] 43.4% | viability, T/C [19] 91.3% | viability, T/C [20] 99.9% | viability, T/C [21] 89.8% | viability, T/C [22] 86.1% | viability, T/C [23] 59.4% | viability, T/C [24] 42% | viability, T/C [25] 94.6% | viability, T/C [26] 96.1% | viability, T/C [27] 84% | viability, T/C [28] 84.9% | viability, T/C [29] 54.8% | viability, T/C [30] 42.4% | viability, T/C [31] 88.7% | viability, T/C [32] 102% | viability, T/C [33] 82.4% | viability, T/C [34] 77.8% | viability, T/C [35] 62.4% | viability, T/C [36] 46.8%

CCCS(=O)(=O)Nc1ccc(F)c(C(=O)c2c[nH]c3ncc(-c4ccc(Cl)cc4)cc23)c1F + Cc1cnc(CNC(=O)c2c(=O)c3ccc(N4CCCN(C)CC4)nc3n3c2sc2ccccc23)cn1
> 10 µM: IC50 (second compound 0.0316 µM) | IC50 (second compound 0.1 µM) | IC50 (second compound 0.316 µM)
9.59 µM: IC50 (second compound 1 µM)
active: viability, T/C [36] 5.82%
6.53 µM: IC50 (second compound 3.16 µM)
inactive: viability, T/C [1] 97.5% | viability, T/C [2] 103% | viability, T/C [3] 103% | viability, T/C [4] 101% | viability, T/C [5] 101% | viability, T/C [6] 77.1% | viability, T/C [7] 96.9% | viability, T/C [8] 99.5% | viability, T/C [9] 99.7% | viability, T/C [10] 99.3% | viability, T/C [11] 99.1% | viability, T/C [12] 53.2% | viability, T/C [13] 84.4% | viability, T/C [14] 89.7% | viability, T/C [15] 90% | viability, T/C [16] 86.1% | viability, T/C [17] 88.1% | viability, T/C [18] 54% | viability, T/C [19] 78.4% | viability, T/C [20] 78.5% | viability, T/C [21] 78% | viability, T/C [22] 78.2% | viability, T/C [23] 83.8% | viability, T/C [24] 48.9% | viability, T/C [25] 70.9% | viability, T/C [26] 71.5% | viability, T/C [27] 70.8% | viability, T/C [28] 63.5% | viability, T/C [29] 68.1% | viability, T/C [30] 39.7% | viability, T/C [31] 60.8% | viability, T/C [32] 58.6% | viability, T/C [33] 70.2% | viability, T/C [34] 64.5% | viability, T/C [35] 57.5%
3.76 µM: IC50 (second compound 10 µM)

C=CCn1c(=O)c2cnc(Nc3ccc(N4CCN(C)CC4)cc3)nc2n1-c1cccc(C(C)(C)O)n1 + CN(C)c1ccc(Nc2c3ccc(NC(=O)CCN4CCCC4)cc3nc3cc(NC(=O)CCN4CCCC4)ccc23)cc1
inactive: viability, T/C [1] 95% | viability, T/C [2] 89.5% | viability, T/C [3] 85.1% | viability, T/C [4] 82.1% | viability, T/C [5] 63.3% | viability, T/C [6] 24.8% | viability, T/C [7] 94.7% | viability, T/C [8] 97.9% | viability, T/C [9] 85% | viability, T/C [10] 69.4% | viability, T/C [11] 54.4% | viability, T/C [12] 20.9% | viability, T/C [13] 99.3% | viability, T/C [14] 101% | viability, T/C [15] 82.7% | viability, T/C [16] 81% | viability, T/C [17] 55.7% | viability, T/C [18] 24.5% | viability, T/C [19] 101% | viability, T/C [20] 96.7% | viability, T/C [21] 88.6% | viability, T/C [22] 74.9% | viability, T/C [23] 54.5% | viability, T/C [24] 18.2% | viability, T/C [25] 96.2% | viability, T/C [26] 97.8% | viability, T/C [27] 93.9% | viability, T/C [28] 89.3% | viability, T/C [29] 58.5% | viability, T/C [30] 18.2% | viability, T/C [31] 94.3% | viability, T/C [32] 90.9% | viability, T/C [33] 78.2% | viability, T/C [34] 76.2% | viability, T/C [35] 53.1% | viability, T/C [36] 13.3%
4.01 µM: IC50 (second compound 0.316 µM)
4.71 µM: IC50 (second compound 0.0316 µM)
4.04 µM: IC50 (second compound 3.16 µM)
3.41 µM: IC50 (second compound 0.1 µM) | IC50 (second compound 10 µM)
3.54 µM: IC50 (second compound 1 µM)

CC1COCCN1c1cc(-c2ccnn2C)c2ccnc(-c3ccn[nH]3)c2n1 (stereo not drawn) + Cc1[nH]c2ccc(F)cc2c1-c1nc2c3cccnc3c3ncccc3c2[nH]1
0.209 µM: IC50 (second compound 10 µM)
0.295 µM: IC50 (second compound 0.316 µM)
0.276 µM: IC50 (second compound 1 µM)
inactive: viability, T/C [1] 106% | viability, T/C [2] 80.6% | viability, T/C [3] 53.5% | viability, T/C [4] 38.8% | viability, T/C [5] 35.8% | viability, T/C [6] 30.7% | viability, T/C [7] 103% | viability, T/C [8] 77.2% | viability, T/C [9] 45.7% | viability, T/C [10] 36.9% | viability, T/C [11] 40.8% | viability, T/C [12] 34.5% | viability, T/C [13] 101% | viability, T/C [14] 87.4% | viability, T/C [15] 47.8% | viability, T/C [16] 34% | viability, T/C [17] 41.6% | viability, T/C [18] 30.2% | viability, T/C [19] 91.6% | viability, T/C [20] 82% | viability, T/C [21] 46% | viability, T/C [22] 31.9% | viability, T/C [23] 39.6% | viability, T/C [24] 29.8% | viability, T/C [25] 88.2% | viability, T/C [26] 73.5% | viability, T/C [27] 40.6% | viability, T/C [28] 30.3% | viability, T/C [29] 34.1% | viability, T/C [30] 27.4% | viability, T/C [31] 76.1% | viability, T/C [32] 73.5% | viability, T/C [33] 36.8% | viability, T/C [34] 31.6% | viability, T/C [35] 32.8% | viability, T/C [36] 29.6%
0.227 µM: IC50 (second compound 3.16 µM)
0.269 µM: IC50 (second compound 0.1 µM)
0.427 µM: IC50 (second compound 0.0316 µM)
